Where two headings read alike, the source gives them in different places.
B1: mAb114: a monoclonal antibody (antibody, chains of the INN, looked up, V domains shown)
VH: EVQLVESGGGLIQPGGSLRLSCAASGFALRMYDMHWVRQTIDKRLEWVSAVGPSGDTTYADSVKGRFAVSRENAKNSLSLQMNSLTAGDTAIYYCVRSDRGVAGLFDSWGQGILVTVSS
VL: DIQMTQSPSSLSASVGDRITITCRASQAFDNYVAWYQQRPGKVPKLLISAASALHAGVPSRFSGSGSGTHFTLTISSLQPEDVATYYCQNYNSAPLTFGGGTKVEIK

What was measured:
[1] = tested on: EBOV; conditions: cited from earlier work
[2] = guinea pig, microsomes
[3] = microsomes
[4] = in vitro; conditions: human, microsomes
[5] = in vitro; conditions: mouse, microsomes
[6] = mouse, microsomes
[7] = human, microsomes
[8] = in vitro; conditions: guinea pig, microsomes
[9] = tested on: EBOV; conditions: mouse, in vivo; cited from earlier work
[10] = tested on: Sudan virus; conditions: guinea pig, in vivo, sc; cited from earlier work
[11] = tested on: VSV pseudotyped with EBOV glycoprotein; type: cell-based
[12] = tested on: Marburg virus/H.sapiens-tc/AGO/2005/Ang-1379v (MARV/Ang); assay: organism not typed; type: cell-based; conditions: HeLa
[13] = male, Hartley, guinea pig, in vivo
[14] = tested on: EBOV (Kikwit, Mayinga and Makona); assay: microbe, parasite or virus in culture; type: cell-based, Ebola virus; conditions: Zaire ebolavirus, HeLa, read-out: IC50 range against three strains of EBOV
[15] = in vivo; conditions: male, Hartley, guinea pig, ip, 125 mg/kg
[16] = tested on: MARV (Musoke and Angola); assay: organism not typed; type: cell-based, Marburg virus; conditions: HeLa, read-out: IC50 range against two strains of MARV
[17] = tested on: Marburg virus/H.sapiens-tc/KEN/1980/Mt. Elgon-Musoke (MARV/Mus); assay: organism not typed; type: cell-based; conditions: HeLa
[18] = in vitro; conditions: human
[19] = human, in vivo; cited from earlier work
[20] = both, Hartley, guinea pig, in vivo
[21] = tested on: MARV Musoke strain; type: cell-based, Marburg virus
[22] = pH 7.4
[23] = tested on: EBOV; conditions: human, in vivo; cited from earlier work
[24] = tested on: EBOV; conditions: in vivo, iv; cited from earlier work

Molecule	activity in the guinea pig in vivo model [1]	Clint [2] [µL·min/mg]	Clint [3] [µL·min/mg]	half-life [4] [h]	half-life [5] [h]	Clint [6] [µL·min/mg]	Clint [7] [µL·min/mg]	half-life [8] [h]	other results
17-DMAG	inactive	–	–	–	–	–	–	–	–
Nc1nc(Nc2ccc3c(c2)CC[C@@H](N2CCCC2)CC3)nn1-c1cc2c(nn1)-c1ccccc1CCC2 [BGB324]	inactive	–	–	–	–	–	–	–	–
CCN(CC)CCCC(C)Nc1ccnc2cc(Cl)ccc12 (centres unmarked) [Chloroquine]	inactive	10.5	13.0	3.36	0.788	29.3	6.9	2.21	–
NC(=O)c1nc(F)c[nH]c1=O [Favipiravir]	–	–	–	–	–	–	–	–	protection [9]: 83%; survival rates [10]: 83–100%
COc1ccc2nc3cc(Cl)ccc3c(Nc3cc(CN4CCCC4)c(O)c(CN4CCCC4)c3)c2n1 [Pyronaridine, 4-[(7-Chloro-2-methoxybenzo[b][1,5]naphthyridin-10-yl)amino]-2,6-bis(1-pyrrolidinylmethyl)phenol phosphate (1:4)]	–	21.0	15.5	2.04	> 3.1	<7.4	11.4	1.1	Effect on entry stage of infection in pseudotype assay [11]: block the entry stage of infection; IC50 [12]: 2720 ± 970 nM; Guinea pigs found dead on days 14 and 17 post dose [13]: 2 of 3; T1/2 ([13]; po, 600 mg/kg): 90.5 h; IC50 [14]: 820 to 1300 nM; AUC(0-inf) [15]: 17400 ng·h/mL; AUC(0-t) [15]: 16600 ng·h/mL; Cmax [15]: 523 ng/mL; half-life ([15]; T1/2): 72.7 h; IC50 [16]: 1010 to 2720 nM; IC50 [17]: 1010 ± 110 nM; CC50 [18]: 4110 ± 500 nM; t1/2 [19]: 195 to 251 h; guinea pigs found dead within 30 mins post injection [20]: 4 of 6; guinea pigs having any abnormal clinical observations [20]: 1 of 6; Activity against MARV Musoke strain [21]: active
CCN(CC)CCCC(C)Nc1c2ccc(Cl)cc2nc2ccc(OC)cc12 (centres unmarked) [Quinacrine]	–	81.3	137.4	0.458	0.21	110.0	50.5	0.285	Effect on entry stage of infection in pseudotype assay [11]: block the entry stage of infection; IC50 [12]: 2940 ± 760 nM; O-demethylation, higher in guinea pig [22]: 2–3 times; IC50 [17]: 1570 ± 170 nM; CC50 [18]: 8620 ± 20 nM; Activity against MARV Musoke strain [21]: active
CCN(CC)CCOc1ccc2c(c1)C(=O)c1cc(OCCN(CC)CC)ccc1-2 [Tilorone]	–	113.7	14.7	2.12	1.71	13.5	10.9	0.203	Effect on entry stage of infection in pseudotype assay [11]: block the entry stage of infection; IC50 [12]: 4510 ± 1930 nM; IC50 [17]: 2050 ± 280 nM; CC50 [18]: 18000 ± 3040 nM; Activity against MARV Musoke strain [21]: active
CCCCc1oc2ccccc2c1C(=O)c1cc(I)c(OCCN(CC)CC)c(I)c1 [amiodarone]	inactive	–	–	–	–	–	–	–	–
CC[C@H]1OC(=O)[C@H](C)[C@@H](O[C@H]2C[C@@](C)(OC)[C@@H](O)[C@H](C)O2)[C@H](C)[C@@H](O[C@@H]2O[C@H](C)C[C@H](N(C)C)[C@H]2O)[C@](C)(O)C[C@@H](C)CN(C)[C@H](C)[C@@H](O)[C@]1(C)O [azithromycin]	inactive	–	–	–	–	–	–	–	–
CCC(CC)COC(=O)[C@H](C)N[P@](=O)(OC[C@H]1O[C@@](C#N)(c2ccc3c(N)ncnn23)[C@H](O)[C@@H]1O)Oc1ccccc1 [remdesivir]	–	–	–	–	–	–	–	–	overall survival rate [23]: 47%; survival [24]: 100%
B1	–	–	–	–	–	–	–	–	overall survival rate [23]: 66%

Reference: article PMC8194506 (Antiviral research, 2020)
